Several values for one entry are separate records, joined by “and”; a condition that tells them apart may be missing. Equal values may be shown once. Activity calls are given as the source filed them.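 How the source made its calls: active means compounds giving half or more protection of infected cells from virus-caused growth loss, again on retest; inactive means the rest.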 *1 amine or outer side, *2 acyl side, *3 side chain or, on linkers, in order; H or OH if unused. Where a SMILES comes first, the peptide text is derived from it. [ ]: non-standard residue; d: D form. The star is where a group is joined. X7 = NC(N)=NCC(O)CC(N[*:1])C(=O)[*:2]; ΔPro = O=C(O)[CH]1C=CCN1; Orn = NCCC[CH](N)C(=O)O; Cbz = O=C(OCc1ccccc1)*

The record followed here is PubChem BioAssay AID179 (DTP/NCI, 2004).

The assay concerns CEM cells HIV-1 protection, formazan growth assay. In words: NCI AIDS Antiviral Assay. Particulars: for IC50: measured here: growth of uninfected CEM cells. In outline:
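Steps: treat uninfected and HIV-1-infected human CEM cells at five drug levels; quantify growth by soluble formazan; retest any compound reaching 50% protection; classify actives from the retest.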

The term EC50 denotes the concentration that produces a half-maximal response. As a reminder, the IC50 is the concentration at which inhibition is half-maximal. A high value points to lower potency. In the case of `Nn1c(CNc2ccc(-c3nnc(Nc4ccc(Cl)cc4)n3N)cc2)nnc1Nc1ccc(Cl)cc1`, the EC50 was more than 200 µM and the IC50 came to 67.6 µM.
In the case of `CCn1c(=O)c(N=O)c(N)n(CCCOC)c1=O`, the EC50 is more than 200 µM and the IC50 is more than 200 µM.
As for `CCCCNC(=O)NNC(=O)c1cc(/C=C/c2cccc([N+](=O)[O-])c2)ncn1`, the EC50 was more than 178 µM and the IC50 was more than 178 µM.
As for `O=C(O)C1(C(=O)O)CC2C3C=CC(C3)C2C1` (stereo unspecified), the EC50 is more than 398 µM and the IC50 was more than 398 µM.
Turning to `COc1cc2c(c(C3C(=O)N(C)c4ccc(Br)cc43)c1OC)OCO2` (stereo unspecified), the EC50 was more than 200 µM and the IC50 is more than 200 µM.
For the compound `COC(=O)NN/C=C(\C=Nc1ccccc1)[N+](=O)[O-]`, the EC50 is more than 97.7 µM and the IC50 worked out at 87.1 µM.
For `O=c1[nH]c(-c2ccc([N+](=O)[O-])cc2)nc2ccc(Cl)cc12`, the result was inactive.
`CCCC(=O)OC1CN2CC[C@H](O)C2C(O)[C@@H]1O` (stereo partly specified): the EC50 is 2.29 µM and the IC50 was 955 µM.
In the same order, the values of `Cn1nc(/C=C/c2ccccc2)nc2c(=O)n(C)c(=O)nc1-2` are more than 200 µM and 0.631 µM.
With `C[C@H]1[C@H](C)Oc2c3c(c4c(CO)cc(=O)oc4c2[C@H]1O)OC(C)(C)C=C3`, the EC50 is more than 200 µM and the half-inhibitory concentration (IC50) is more than 200 µM.
`NS(=O)(=O)c1nnc(NC(=O)/C=C/C(=O)O)s1`: the EC50 is more than 200 µM and the IC50 was more than 200 µM.
For the compound `Clc1ccccc1C1=NN(c2ccccc2)C2c3ccccc3OCC12` (stereo unspecified), the EC50 was more than 72.4 µM and the IC50 was more than 72.4 µM.
`O=C1CNC(=O)c2c(ncn2C2OC(CO)C(O)C2O)N1` (stereo unspecified): the EC50 is more than 214 µM and the IC50 is more than 214 µM.
Consider `CC(=O)OC(=C(C#N)C#N)c1nccnc1C(C)=O`, for which the EC50 is more than 200 µM and the IC50 amounted to 11.2 µM.
In the same order, the values of `CC(=O)NCC1(c2ccccc2)CCN(CC2COc3ccccc3O2)CC1` (stereo unspecified) are more than 200 µM and more than 200 µM.
For `CCCCCCCC(=O)OCC1OC(n2cc(F)c(=O)[nH]c2=O)C(NC(=O)OCc2ccccc2)C(OC(=O)CCCCCCC)C1O` (stereo unspecified) the same measures were more than 10.7 µM and more than 10.7 µM.
For `CC(C)C(N=C1CC2CCC1(C(=O)Nc1ccccc1O)C2(C)C)c1ccccc1` (stereo unspecified), the EC50 is 20 µM and the IC50 was found to be 32.4 µM.
For `CCOC(=O)C1=C(O)c2ccccc2S(=O)(=O)N1C` (tested in a mixture with another compound) the same measures were more than 123 µM and 110 µM.
In the same order, the values of `CC(C)=CC(C(O)c1ccccc1)S(=O)(=O)c1nccn1C` (stereo unspecified) are more than 407 µM and more than 407 µM.
In the case of `Cc1nn(C(=O)Cc2ccccc2)c2c1C(c1ccccc1[N+](=O)[O-])SC(N)=N2` (stereo unspecified), the EC50 is more than 501 µM and the IC50 was 87.1 µM.
For the compound `NC(N)=NS(=O)(=O)c1ccc(NC(=O)c2cccc3c(Nc4ccc(S(=O)(=O)N=C(N)N)cc4)c4ccccc4nc23)cc1`, the EC50 is more than 29.5 µM and the IC50 was 22.4 µM.
`O=[N+]([O-])c1ccc([N+](=O)[O-])c(Cl)c1`: the EC50 is more than 200 µM and the IC50 is 3.16 µM.
In the same order, the values of `Nc1ccccc1OCCCOc1ccccc1N` are more than 200 µM and 110 µM.
As for `CC(C)Oc1c(O)c2c3c(oc(=O)n3C=CC2c2ccccc2F)c1OC(C)C` (stereo unspecified), the EC50 is more than 200 µM and the IC50 turned out to be 29.5 µM.
Turning to `CCN1C(=O)CS/C1=N\NC(=O)CSc1nc2ccccc2c(=O)n1CC`, the EC50 is more than 200 µM and the IC50 came out at 151 µM.
In the case of `CCOC(=O)c1nc(C)c(-c2ccccc2)c(-c2ccccc2)c1C`, the EC50 was more than 11.5 µM and the IC50 is more than 11.5 µM.
On to `Cn1c(=O)cc(C=Nc2ccc(O)cc2)c2ccccc21`, for which the EC50 is more than 200 µM and the IC50 came to 1.74 µM.
For `CN(CCC#N)c1ccc(/C=C(\C#N)c2ccc(Br)cc2)cc1` the same measures were more than 200 µM and 4.57 µM.
In the same order, the values of `N/N=C1/C(=N/O)CCc2nonc21` are more than 200 µM and more than 200 µM.
In the same order, the values of `COC1CC(C)C(OC)C2=CC(=O)C=C(NC(=O)/C(C)=C/C=C\C(C)C(OC(N)=O)/C(C)=C\C(C)C1OC)C2=O` (stereo unspecified) are more than 2 µM and 0.204 µM.
With `COc1ccc(C(C)(C)c2cc3c(cc2OC)OCO3)cc1`, the EC50 is more than 45.7 µM and the IC50 was 0.0316 µM.
For `CCCCc1ccc(C2=C(O)C(=O)C(c3ccc(CCCC)cc3)=C(O)C2=O)cc1` the same measures were more than 43.7 µM and 3.31 µM.
On to `COc1cc([C@@H]2c3cc4c(cc3[C@@H](OC3OC5CO[C@@H](c6cccs6)OC5C(O)C3O)[C@H]3COC(=O)[C@H]23)OCO4)cc(OC)c1O` (stereo partly specified), for which the EC50 was more than 0.398 µM and the IC50 came out at 0.00174 µM.
In the same order, the values of `COc1ccc(S(=O)(=O)N/N=C/CN2C(=O)c3ccccc3C2=O)cc1` are more than 135 µM and more than 135 µM.
In the same order, the values of `COC(=O)C(Cc1nc2ccc(Cl)cc2[nH]c1=O)/C(=N/NC(N)=O)C(=O)Nc1ccc(Cl)cc1` (stereo unspecified) are more than 70.8 µM and more than 70.8 µM.
In the same order, the values of `N#CC(=Nc1ccccc1N(C(=O)c1ccccc1)C(=O)c1ccccc1)c1ccccc1` are more than 17 µM and more than 17 µM.
`Cc1ccc(/C=C2\CCC/C(=C\c3ccc(O)c(CN4CCCCC4)c3)C2=O)cc1`: the EC50 is more than 100 µM.
Take `COc1ccc(Nc2nc3ccc(C(F)(F)F)cc3nc2C(=O)O)cc1`: the EC50 is more than 200 µM and the IC50 turned out to be 20.4 µM.
For `Brc1cccc(N=NN2CCCC2)c1` the same measures were more than 200 µM and 36.3 µM.
Consider `COc1ccc(CC2(Cc3ccc(OC)cc3)CCOC2=O)cc1`, for which the EC50 is more than 21.9 µM and the IC50 is more than 21.9 µM.
Turning to `CC(O)C(NC(=O)C(CCCN)NC(=O)C(CC(O)CN=C(N)N)NC(=O)C(N)CCCN=C(N)N)C(=O)NC(CCCN)C(=O)NC(CC(O)CN=C(N)N)C(=O)NC(Cc1ccc(O)cc1)C(=O)O` (stereo unspecified) (tested in a mixture with another compound) (H-R[X7][Orn]T[Orn][X7]Y-OH; configuration not given here), the EC50 is more than 47.9 µM and the IC50 came to 39.8 µM.
In the same order, the values of `COc1cc(/C=C2/SC(c3ccccc3)N(Cc3ccccc3)C2=O)cc(OC)c1OC` (stereo unspecified) are more than 200 µM and 25.7 µM.
On to `S=C1NC(c2ccc(Cl)cc2)N2C(=S)NC(c3ccc(Cl)cc3)N12` (stereo unspecified), for which the result was inactive.
Consider `Cc1cc(C)c(O)c(CN(Cc2ccccn2)Cc2ccccn2)c1`, for which the outcome was inactive.
With `O=C(/C(=C/c1cccc(Cl)c1)c1ccccc1)c1ccccc1`, the EC50 is more than 8.51 µM and the IC50 was more than 8.51 µM.
Turning to `CC(C)(CN1CCCCC1)C(=O)CC(SCCN)c1ccc(Cl)cc1` (stereo unspecified), the EC50 is more than 234 µM and the IC50 was found to be 12.6 µM.
For `N#C/C=C\c1cccc(C#N)c1` the same measures were more than 46.8 µM and more than 46.8 µM.
In the same order, the values of `CC(=O)NNc1nc(C)c(C(=O)NNC(=O)C(=O)Nc2c(Cl)cc([N+](=O)[O-])cc2Cl)s1` are more than 74.1 µM and more than 74.1 µM.
For the compound `CCOC(=O)/C(=C/c1ccco1)C(=O)c1ccccc1`, the EC50 is more than 132 µM and the IC50 came out at 77.6 µM.
On to `CN(C)C(c1ccccc1)C1COC2Cc3ccccc3C1O2` (stereo unspecified), for which the EC50 is more than 200 µM; the IC50 is > 200 µM and 151 µM.
Regarding `COC(=O)c1c(-c2ccccc2)sc(-c2cccc3ccccc23)c1C(=O)OC`, the outcome was inactive.
On to `c1ccc2c3c([nH]c2c1)CCc1cncnc1-3`, for which the EC50 is more than 200 µM and the IC50 came out at 12 µM.
For `C/C(=N\NC(=S)N1CCN(c2ccccn2)CC1)c1cccc(C)n1` the same measures were more than 42.7 µM and 0.0155 µM.
For `Cc1[nH]c2c(C)c3c([nH]c4ccc(Cl)cc43)c(C)c2c(=O)c1C` the same measures were more than 17 µM and 9.77 µM.
With `Cc1c(/C=C2\CC/C(=C\c3[nH]c(C(=O)OC(C)(C)C)c(C)c3C)C2=O)[nH]c(C(=O)OC(C)(C)C)c1C`, the result was inactive.
As to `Cn1c2c(c3cc(Cl)cc(Cl)c31)-c1ncncc1CC2`, the EC50 is more than 61.7 µM and the IC50 is more than 61.7 µM.
With `O=c1[nH]nc2c3n[nH]c(=O)n3c3ccccc3n12`, the EC50 was more than 14.8 µM and the IC50 was more than 14.8 µM.
As to `CN1CCOC(c2ccccc2)O1` (stereo unspecified), the EC50 was more than 251 µM and the IC50 was more than 251 µM.
On to `O=C(O)CCC(NC(=O)OCc1ccccc1)C(=O)NC(Cc1cnc[nH]1)C(=O)O` (stereo not drawn) (Cbz-Glu-His-OH; configuration not given here), for which the EC50 was more than 200 µM and the IC50 is more than 200 µM.
For `CCCCCCCCCCC(c1cc(Cl)c(OC)c(C(=O)OC)c1)c1cc(Cl)c(OC)c(C(=O)OC)c1`, the EC50 was more than 38.9 µM and the IC50 was more than 38.9 µM.
Consider `c1ccc(C[n+]2ccc3c(c2)CCCC3)cc1`, for which the EC50 was more than 200 µM and the IC50 was determined as 40.7 µM.
Take `CC12CC1C(c1cccc([N+](=O)[O-])c1)(c1cccc([N+](=O)[O-])c1)N=N2` (stereo unspecified): the EC50 is more than 200 µM and the concentration for half-maximal inhibition (IC50) worked out at 13.5 µM.
Take `Cc1cc(C)n(C(C)(C(=O)Cc2ccccc2)n2nc(C)cc2C)n1`: the EC50 is more than 200 µM and the IC50 was more than 200 µM.
Consider `O=C(O)C1C=CCN1C(=O)C1C=CCN1C(=O)C1C=CCN1` (stereo unspecified) (H-[ΔPro]-[ΔPro]-[ΔPro]-OH; configuration not given here), for which the EC50 was more than 200 µM and the IC50 came out at 166 µM.
For `Cc1cc2c3ccccc3n(C)c2c2c1C(=O)c1ccccc1C2=O` the same measures were more than 7.94 µM and more than 7.94 µM.
In the same order, the values of `COC1CC(C)(NC(=O)C(F)(F)F)C2OC(c3ccccc3)OCC2O1` (stereo unspecified) are more than 200 µM and more than 200 µM.
As for `CC(=O)Nc1c(I)c(NC(C)=O)c(I)c(C(=O)O)c1I`, the outcome was inactive.
As to `Cc1ccc(NC2=N/C(=C/c3ccco3)C(Cl)=N2)cc1`, the EC50 is more than 200 µM and the IC50 was 158 µM.
Consider `CC(=O)Nc1oc(C)nc1C#N`, for which the EC50 is more than 200 µM and the IC50 was more than 200 µM.
